ChEMBL document CHEMBL5375972, “Discovery of Novel 2,3-Dihydro-1H-indene-5-sulfonamide NLRP3 Inflammasome Inhibitors Targeting Colon as a Potential Therapy for Colitis” (J Med Chem, 2023)
Calls of active or inactive are those of the source. The calls are words filed in the database; no cut-off is given here.

How the values were obtained:
[1] = Cytotoxicity against human HL7702 cells incubated for 48 hrs by resazurin reagent based assay; assay type: toxicity, cell-based; conditions: HL7702 (L02) cells
J774.A1 [2] = test: Inhibition of NF-kappaB pathway in mouse J774.A1 cells assessed as inhibition of LPS-induced IL-6 secretion at 0.1 to 30 uM pretreated for 1hr followed by LPS addition for 6 hrs by ELISA; assay type: cell-based; conditions: dose 0.1-30 µM, time 7.0 hrs
J774.A1 [3] = test: Inhibition of NF-kappaB pathway in mouse J774.A1 cells assessed as inhibition of LPS-induced TNF-alpha secretion at 0.1 to 30 uM pretreated for 1hr followed by LPS addition for 6 hrs by ELISA; assay type: cell-based; conditions: dose 0.1-30 µM, time 7.0 hrs
J774.A1 [4] = test: […] of pyroptosis in mouse J774.A1 cells assessed as decrease in LDH release at 0.1 to 30 uM stimulated with LPS for 4.5 hs followed by incubation with compound for 30 mins and ATP addition for 30 mins by microplate reader assay; assay type: functional, cell-based; conditions: dose 0.1-30 µM, time 1.0 hrs
[5] = molecular target: NACHT, LRR and PYD domains-containing protein 3 (Homo sapiens, UniProt Q96P20); test: Binding affinity to human NLRP3 assessed as equilibrium dissociation constant by surface plasmon resonance assay
Chain of NACHT, LRR and PYD domains-containing protein 3 (Q96P20 whole entry, the tested form may be a part): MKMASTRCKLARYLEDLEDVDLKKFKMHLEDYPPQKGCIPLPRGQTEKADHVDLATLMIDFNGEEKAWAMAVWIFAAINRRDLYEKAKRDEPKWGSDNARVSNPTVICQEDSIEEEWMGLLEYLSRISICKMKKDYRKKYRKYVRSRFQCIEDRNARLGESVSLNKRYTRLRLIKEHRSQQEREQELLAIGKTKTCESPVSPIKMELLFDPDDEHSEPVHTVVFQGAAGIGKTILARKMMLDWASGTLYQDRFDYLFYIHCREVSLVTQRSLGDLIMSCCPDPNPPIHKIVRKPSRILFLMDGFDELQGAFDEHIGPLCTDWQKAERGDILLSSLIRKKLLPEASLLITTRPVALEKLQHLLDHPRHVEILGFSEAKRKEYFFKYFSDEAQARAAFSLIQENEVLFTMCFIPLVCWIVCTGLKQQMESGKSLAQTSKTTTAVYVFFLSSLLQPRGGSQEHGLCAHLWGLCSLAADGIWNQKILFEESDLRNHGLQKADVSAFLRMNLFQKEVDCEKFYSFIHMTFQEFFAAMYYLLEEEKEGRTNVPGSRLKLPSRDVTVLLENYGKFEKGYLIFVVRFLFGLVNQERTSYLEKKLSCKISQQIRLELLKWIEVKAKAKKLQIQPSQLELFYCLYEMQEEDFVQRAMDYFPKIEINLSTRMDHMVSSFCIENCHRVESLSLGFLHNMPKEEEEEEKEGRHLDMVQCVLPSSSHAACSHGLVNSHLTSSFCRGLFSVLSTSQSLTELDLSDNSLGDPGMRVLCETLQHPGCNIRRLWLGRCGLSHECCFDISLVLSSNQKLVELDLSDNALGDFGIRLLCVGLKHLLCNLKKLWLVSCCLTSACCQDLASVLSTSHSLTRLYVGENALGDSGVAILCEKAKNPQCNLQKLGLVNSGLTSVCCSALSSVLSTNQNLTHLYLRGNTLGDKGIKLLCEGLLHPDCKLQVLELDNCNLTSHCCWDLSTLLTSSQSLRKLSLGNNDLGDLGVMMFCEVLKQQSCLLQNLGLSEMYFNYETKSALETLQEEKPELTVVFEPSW

[6] = AUC (0-infinity) in Sprague-Dawley rat at 1 mg/kg,iv measured after 24 hrs by HPLC-MS/MS analysis; assay type: ADME, organism-based; set-up: time 24 hrs, dose 1 mg/kg, route iv; conditions: in vivo
[7] = Cmax in Sprague-Dawley rat at 1 mg/kg,iv measured after 24 hrs by HPLC-MS/MS analysis; assay type: ADME, organism-based; set-up: dose 1 mg/kg, time 24 hrs, route iv; conditions: in vivo
[8] = Stability of compound in human plasma measured for 48 hrs; assay type: ADME, cell-free
[9] = Drug distribution in Sprague-Dawley rat heart at 1 mg/kg,iv measured for 0.5 to 2 hrs by HPLC-MS/MS analysis; assay type: ADME, organism-based; conditions: in vivo, time 0.5-2 hrs
[10] = Drug distribution in Sprague-Dawley rat liver at 1 mg/kg,iv measured for 0.5 to 2 hrs by HPLC-MS/MS analysis; assay type: ADME, organism-based; conditions: in vivo, time 0.5-2 hrs
[11] = Drug distribution in Sprague-Dawley rat spleen at 1 mg/kg,iv measured for 0.5 to 2 hrs by HPLC-MS/MS analysis; assay type: ADME, organism-based; conditions: in vivo, time 0.5-2 hrs
[12] = Drug distribution in Sprague-Dawley rat lung at 1 mg/kg,iv measured for 0.5 to 2 hrs by HPLC-MS/MS analysis; assay type: ADME, organism-based; conditions: in vivo, time 0.5-2 hrs
[13] = Drug distribution in Sprague-Dawley rat brain at 1 mg/kg,iv measured for 0.5 to 2 hrs by HPLC-MS/MS analysis; assay type: ADME, organism-based; conditions: in vivo, time 0.5-2 hrs
[14] = Drug distribution in Sprague-Dawley rat plasma at 1 mg/kg,iv measured for 0.5 to 2 hrs by HPLC-MS/MS analysis; assay type: ADME, organism-based; conditions: in vivo, time 0.5-2 hrs
Mus musculus [15] = test: Anti-inflammatory activity in C57BL/6 mouse assessed as inhibition of LPS-induced TNFF-alpha secretion at 10 mg/kg,ip administrated for 1 hr followed by LPS stimulation for 2.5 hrs by ELISA analysis; assay type: functional, organism-based
Mus musculus [16] = test: Anti-inflammatory activity in DSS-induced ulcerative colitis C57BL/6 mouse model assessed as increase in body weight at 10 mg/kg,ip administrated for 9 days; assay type: functional, organism-based; conditions: time 9.0 day
Mus musculus [17] = test: Anti-inflammatory activity in DSS-induced ulcerative colitis C57BL/6 mouse model assessed as increase in colon length at 10 mg/kg,ip administrated for 9 days; assay type: functional, organism-based; conditions: time 9.0 day
Mus musculus [18] = test: Anti-inflammatory activity in DSS-induced ulcerative colitis C57BL/6 mouse model assessed as reduction in mucosal damage in colon at 10 mg/kg,ip administrated for 9 days by Hematoxylin-eosin staining based microscopic analysis; assay type: functional, organism-based; conditions: time 9.0 day
Mus musculus [19] = test: Anti-inflammatory activity in DSS-induced ulcerative colitis C57BL/6 mouse model assessed as reduction in crypt necrosis in colon at 10 mg/kg,ip administrated for 9 days by Hematoxylin-eosin staining based microscopic analysis; assay type: functional, organism-based; conditions: time 9.0 day
Mus musculus [20] = test: Anti-inflammatory activity in DSS-induced ulcerative colitis C57BL/6 mouse model assessed as decrease in NLRP3 expression in colon at 10 mg/kg,ip administrated for 9 days by immunohistochemistry analysis; assay type: functional, organism-based; conditions: time 9.0 day
Mus musculus [21] = test: Anti-inflammatory activity in DSS-induced ulcerative colitis C57BL/6 mouse model assessed as decrease in IL-1beta expression in colon at 10 mg/kg,ip administrated for 9 days by immunohistochemistry analysis; assay type: functional, organism-based; conditions: time 9.0 day
Mus musculus [22] = test: Anti-inflammatory activity in DSS-induced ulcerative colitis C57BL/6 mouse model assessed as decrease in NLRP3 protein expression in colon at 10 mg/kg,ip administrated for 9 days by Western blotting analysis; assay type: functional, organism-based; conditions: time 9.0 day
Mus musculus [23] = test: Anti-inflammatory activity in DSS-induced ulcerative colitis C57BL/6 mouse model assessed as decrease in pro-IL-1beta protein expression in colon at 10 mg/kg,ip administrated for 9 days by Western blotting analysis; assay type: functional, organism-based; conditions: time 9.0 day
Mus musculus [24] = test: Anti-inflammatory activity in DSS-induced ulcerative colitis C57BL/6 mouse model assessed as decrease in IL-1beta p17 protein expression in colon at 10 mg/kg,ip administrated for 9 days by Western blotting analysis; assay type: functional, organism-based; conditions: time 9.0 day
[25] = Acute toxicity in Kunming mouse model assessed as change in body weight at 1000 mg/kg,IG administration for 7 days; assay type: organism-based; conditions: in vivo, po, 168 h, time 7 day
[26] = Acute toxicity in Kunming mouse model assessed as clonic convulsion at 1000 mg/kg,IG administration for 7 days; assay type: organism-based; conditions: in vivo, po, 168 h, time 7 day
[27] = Acute toxicity in Kunming mouse model assessed as ruffled fur at 1000 mg/kg,IG administration for 7 days; assay type: organism-based; conditions: in vivo, po, 168 h, time 7 day
[28] = Acute toxicity in Kunming mouse model assessed as ruffled fur at 2000 mg/kg,IG administration for 7 days; assay type: organism-based; conditions: in vivo, po, 168 h, time 7 day
[29] = Subacute toxicity in C57BL/6 mouse assessed as body weight gain at 10 mg/kg,ip administrated for 14 days; assay type: organism-based; conditions: in vivo, 336 h, time 14 day
[30] = Subacute toxicity in C57BL/6 mouse assessed as change in heart weight at 10 mg/kg,ip administrated for 14 days; assay type: organism-based; conditions: in vivo, 336 h, time 14 day
[31] = Subacute toxicity in C57BL/6 mouse assessed as change in heart weight at 100 mg/kg,ip administrated for 14 days; assay type: organism-based; conditions: in vivo, 336 h, time 14 day
[32] = Subacute toxicity in C57BL/6 mouse assessed as change in liver weight at 100 mg/kg,ip administrated for 14 days; assay type: organism-based; conditions: in vivo, 336 h, time 14 day
[33] = Subacute toxicity in C57BL/6 mouse assessed as change in lung weight at 10 mg/kg,ip administrated for 14 days; assay type: organism-based; conditions: in vivo, 336 h, time 14 day
[34] = Subacute toxicity in C57BL/6 mouse assessed as change in colon weight at 10 mg/kg,ip administrated for 14 days; assay type: organism-based; conditions: in vivo, 336 h, time 14 day
[35] = Subacute toxicity in C57BL/6 mouse assessed as spleen histological changes at 10 mg/kg,ip administrated for 14 days; assay type: organism-based; conditions: in vivo, 336 h, time 14 day
[36] = Subacute toxicity in C57BL/6 mouse assessed as spleen histological changes at 100 mg/kg,ip administrated for 14 days; assay type: organism-based; conditions: in vivo, 336 h, time 14 day
[37] = Subacute toxicity in C57BL/6 mouse assessed as lung histological changes at 10 mg/kg,ip administrated for 14 days; assay type: organism-based; conditions: in vivo, 336 h, time 14 day
[38] = Subacute toxicity in C57BL/6 mouse assessed as lung histological changes at 100 mg/kg,ip administrated for 14 days; assay type: organism-based; conditions: in vivo, 336 h, time 14 day
[39] = Subacute toxicity in C57BL/6 mouse assessed as kidney histological changes at 10 mg/kg,ip administrated for 14 days; assay type: organism-based; conditions: in vivo, 336 h, time 14 day

CCCNS(=O)(=O)c1ccc2c(c1)CC(N(Cc1cc(Cl)ccc1OCCOC)C(=O)c1cc3ccccc3o1)C2 (racemic)
CC50 at 48 h [1]: > 1000 µM | inhibition (J774.A1 [2]): inactive | inhibition (J774.A1 [3]): inactive | Activity (J774.A1 [4]): Active | Kd [5]: 0.103 µM | AUC(0-inf) [6]: 213 ng·h/mL | Cmax [7]: 219 ng/mL | Stability [8]: Stable | Drug uptake [9]: Active | Drug uptake [10]: Active | Drug uptake [11]: Active | Drug uptake [12]: Active | Drug uptake [13]: Active | Cp [14]: 2094.04 ng/g | Activity (Mus musculus [15]): Active | Activity (Mus musculus [16]): Active | Activity (Mus musculus [17]): Active | Activity (Mus musculus [18]): Active | Activity (Mus musculus [19]): Active | Activity (Mus musculus [20]): Active | Activity (Mus musculus [21]): Active | Activity (Mus musculus [22]): Active | Activity (Mus musculus [23]): Active | Activity (Mus musculus [24]): Active | Activity [25]: Non-Toxic | Activity [26]: Non-Toxic | Activity [27]: Non-Toxic | Activity [28]: Non-Toxic | Activity [29]: Toxic | Activity [30]: Non-Toxic | Activity [31]: Non-Toxic | Activity [32]: Non-Toxic | Activity [33]: Non-Toxic | Activity [34]: Non-Toxic | Activity [35]: Non-Toxic | Activity [36]: Non-Toxic | Activity [37]: Non-Toxic | Activity [38]: Non-Toxic | Activity [39]: Non-Toxic
